Results taken from the NIST ThermoML archive (doi:10.1016/j.jct.2014.10.007).
Values joined by “and” are separate entries in the source; they are usually repeats but may differ in a detail not shown here. Equal entries are not always repeated. ± gives the expanded uncertainty stated by the source.

Experiment: molar heat capacity at constant pressure; xn = mol fraction of the nth substance listed
Settings: 1 kPa, Liquid, Small sample (50 mg) DSC

SMILES: [Ca+2].[F-].[F-] [calcium fluoride] + [F-].[Li+]
- molar heat capacity at constant pressure (1255 K, x1 = 0.25): 98.98 ± 10 J/K/mol
- molar heat capacity at constant pressure (1255.2 K, x1 = 0.125): 70.22 ± 7.2 J/K/mol
- molar heat capacity at constant pressure (1255.2 K, x1 = 0.375): 113.91 ± 12 J/K/mol
- molar heat capacity at constant pressure (1274.7 K, x1 = 0.25): 102.2 ± 10 J/K/mol
- molar heat capacity at constant pressure (1275 K, x1 = 0.375): 118.44 ± 12 J/K/mol
- molar heat capacity at constant pressure (1275.1 K, x1 = 0.125): 82.4 ± 8.3 J/K/mol
- molar heat capacity at constant pressure (1294.9 K, x1 = 0.25): 103.71 ± 10 J/K/mol
- molar heat capacity at constant pressure (1294.9 K, x1 = 0.375): 121.83 ± 12 J/K/mol
- molar heat capacity at constant pressure (1305.1 K, x1 = 0.125): 80.92 ± 8.2 J/K/mol
- molar heat capacity at constant pressure (1314.9 K, x1 = 0.25): 96.32 ± 9.7 J/K/mol
- molar heat capacity at constant pressure (1315.2 K, x1 = 0.375): 118.21 ± 12 J/K/mol
- molar heat capacity at constant pressure (1325.3 K, x1 = 0.125): 79.47 ± 8 J/K/mol
- molar heat capacity at constant pressure (1334.9 K, x1 = 0.5): 133.92 ± 14 J/K/mol and 120.41 ± 12 J/K/mol
- molar heat capacity at constant pressure (1335.2 K, x1 = 0.25): 98.52 ± 9.9 J/K/mol
- molar heat capacity at constant pressure (1335.2 K, x1 = 0.375): 115.41 ± 12 J/K/mol
- molar heat capacity at constant pressure (1345.4 K, x1 = 0.125): 83.81 ± 8.5 J/K/mol
- molar heat capacity at constant pressure (1354.9 K, x1 = 0.5): 125.69 ± 13 J/K/mol and 133.39 ± 13 J/K/mol
- molar heat capacity at constant pressure (1355.4 K, x1 = 0.125): 82.43 ± 8.3 J/K/mol
- molar heat capacity at constant pressure (1355.5 K, x1 = 0.375): 116.94 ± 12 J/K/mol
- molar heat capacity at constant pressure (1355.6 K, x1 = 0.25): 98.96 ± 10 J/K/mol
- molar heat capacity at constant pressure (1375.4 K, x1 = 0.5): 130.29 ± 13 J/K/mol and 135.8 ± 14 J/K/mol
- molar heat capacity at constant pressure (1375.5 K, x1 = 0.375): 117.98 ± 12 J/K/mol
- molar heat capacity at constant pressure (1375.7 K, x1 = 0.125): 75.1 ± 7.6 J/K/mol
- molar heat capacity at constant pressure (1375.7 K, x1 = 0.25): 95.16 ± 9.6 J/K/mol
- molar heat capacity at constant pressure (1395.9 K, x1 = 0.5): 132.9 ± 13 J/K/mol and 134.28 ± 14 J/K/mol
- molar heat capacity at constant pressure (1396 K, x1 = 0.125): 81.03 ± 8.2 J/K/mol
- molar heat capacity at constant pressure (1396.1 K, x1 = 0.25): 106.8 ± 11 J/K/mol
- molar heat capacity at constant pressure (1396.2 K, x1 = 0.375): 111.04 ± 11 J/K/mol
- molar heat capacity at constant pressure (1415.9 K, x1 = 0.5): 130.4 ± 13 J/K/mol and 137.28 ± 14 J/K/mol
- molar heat capacity at constant pressure (1416 K, x1 = 0.125): 75.28 ± 7.6 J/K/mol
- molar heat capacity at constant pressure (1416.1 K, x1 = 0.25): 101.47 ± 10 J/K/mol
- molar heat capacity at constant pressure (1416.1 K, x1 = 0.375): 112.61 ± 11 J/K/mol
- molar heat capacity at constant pressure (1436.2 K, x1 = 0.125): 76.95 ± 7.8 J/K/mol
- molar heat capacity at constant pressure (1436.2 K, x1 = 0.5): 135.89 ± 14 J/K/mol and 130.39 ± 13 J/K/mol
- molar heat capacity at constant pressure (1436.3 K, x1 = 0.375): 112.16 ± 11 J/K/mol
- molar heat capacity at constant pressure (1436.4 K, x1 = 0.25): 102.59 ± 10 J/K/mol
- molar heat capacity at constant pressure (1456.5 K, x1 = 0.375): 120.54 ± 12 J/K/mol
- molar heat capacity at constant pressure (1456.5 K, x1 = 0.5): 134.58 ± 14 J/K/mol and 132.82 ± 13 J/K/mol
- molar heat capacity at constant pressure (1456.6 K, x1 = 0.125): 77.21 ± 7.8 J/K/mol
- molar heat capacity at constant pressure (1456.8 K, x1 = 0.25): 102.41 ± 10 J/K/mol
- molar heat capacity at constant pressure (1476.7 K, x1 = 0.5): 147.97 ± 15 J/K/mol and 127.49 ± 13 J/K/mol
- molar heat capacity at constant pressure (1476.8 K, x1 = 0.125): 83.38 ± 8.4 J/K/mol
- molar heat capacity at constant pressure (1476.9 K, x1 = 0.375): 111.58 ± 11 J/K/mol
- molar heat capacity at constant pressure (1477 K, x1 = 0.25): 101.6 ± 10 J/K/mol
- molar heat capacity at constant pressure (1497.1 K, x1 = 0.125): 90.8 ± 9.2 J/K/mol
- molar heat capacity at constant pressure (1497.1 K, x1 = 0.375): 123.99 ± 13 J/K/mol
- molar heat capacity at constant pressure (1497.1 K, x1 = 0.5): 143.74 ± 15 J/K/mol and 127.89 ± 13 J/K/mol
- molar heat capacity at constant pressure (1497.2 K, x1 = 0.25): 101.05 ± 10 J/K/mol
- molar heat capacity at constant pressure (1517.3 K, x1 = 0.125): 97.18 ± 9.8 J/K/mol
- molar heat capacity at constant pressure (1517.4 K, x1 = 0.5): 142.13 ± 14 J/K/mol and 123.38 ± 13 J/K/mol
- molar heat capacity at constant pressure (1517.5 K, x1 = 0.375): 109.29 ± 11 J/K/mol
- molar heat capacity at constant pressure (1517.6 K, x1 = 0.25): 104.18 ± 11 J/K/mol
